The text below walks through data of patent US9955689B2, “Method for promoting plant growth” (SUMITOMO CHEMICAL COMPANY, LIMITED, priority 2012, dated 2018).

What all share (type): in vivo
For experiment [1], the system named is Corn (Variety: Pioneer 31P41). Briefly: Test Example 8: growth promotion under low-temperature stress by corn seed treatment. Conditions: corn seed treatment: compound 21 0.5 g, compound 55 0.5 g, 5 g or 50 g per 100 kg corn seeds; 4 days at 2.5±1° C., then 4 days at 27° C. On the procedure: Test Example 8. Test for Evaluating Growth Promotion Under Low-Temperature Stress by Corn Seed Treatment
Corn (Variety: Pioneer 31P41 (Manufactured by Pioneer Hi-Bred Japan)
A blank slurry solution containing 10% (V/V) color coat red (Becker Underwood, Inc.), 10% (V/V) CF-Clear (Becker Underwood, Inc.), and 1.66% Maxim4FS (Syngenta) was prepared. The compound 21 of the present invention was dissolved in the blank slurry such that 0.5 g of the compound was used for treatment per 100 kg corn seeds, and the compound 55 of the present invention was dissolved in the blank slurry such that 0.5 g, 5 g or 50 g of the compound was used for treatment per 100 kg corn seeds respectively, thereby preparing a slurry solution.
Zero point three five (0.35) ml of the slurry solution per 14.4 g of the seeds was put into a 50 ml centrifugal settling tube (manufactured by Becton, Dickinson and Company, Japan), and the slurry solution was stirred until it dries, thereby coating the seeds. Moreover, the seeds coated with the blank slurry were used as seeds for an untreated control plot. […]
After low-temperature stress treatment was performed, the seeds were cultured for 4 days at 27° C., under the conditions of an illuminance of 5,000 lux, and a day length of 16 hours. Thereafter, a fresh weight of the aerial part in plant was measured, and an average weight of each individual was determined. […]

The subject of experiment [2] is Nicotiana benthamiana. Briefly: Test Example 6: growth promotion under low-temperature stress by hydroponics of Nicotiana benthamiana (0.1 ppm). To be noted: compound at 0.1 ppm, 7 days at 1.5±1.0° C. low-temperature stress, then 3 days at 22° C., 5 or greater = growth promotion effect, read-out: value of a relative leaf area (Equation (1), area of green leaf). How it is done: Test Example 6. Test for Evaluating Growth Promotion Under Low-Temperature Stress by Hydroponics of Nicotiana benthamiana
(§1) (Cultivation and Compound Treatment)
A DMSO solution, which contained one of the compounds 2, 3, 7, 11 to 13, 20, 23, 24, 30, 38, 39, 41 to 43, 46, 50, 64, 68, 80, 82, 88, 93, 94, 96, 104, 107, and 112 of the present invention at a concentration of […], was prepared. The DMSO solution of the compound of the present invention was added at a volume ratio of 1/1,000 to the Murashige⋅Scoog medium of a ½-fold concentration (a medium containing 2.3 g of mixed salts (manufactured by Wako Pure Chemical Industries, Ltd.), 200 mg of Myo-inositol (manufactured by Sigme-Aldrich Co. LLC.), 2 mg of niconitic acid (manufactured by Wako Pure Chemical Industries, Ltd.), 2 mg of pyridoxine hydrochloride (manufactured by Wako Pure Chemical Industries, Ltd.), 20 mg of thiamine hydrochloride (manufactured by Wako Pure Chemical Industries, Ltd.), 20 g of sucrose (manufactured by Wako Pure Chemical Industries, Ltd.), and 1 g of […] (manufactured by DOJINDO LABORATORIES) respectively per 1 L of water and having pH adjusted to 5.8), thereby preparing a medium containing the compound of the present invention at a concentration of 0.1 ppm.
(§2) Seeds of Nicotiana benthamiana were seeded in the 5 μL of the medium and cultured overnight at 22° C. Thereafter, 45 μL of the medium containing the compound of the present invention at a concentration of 0.1 ppm was added thereto, and the seeds are cultured for 7 days at 22° C. under the conditions of an illuminance of 4,000 lux, and a day length of 16 hours, and the seedlings raised from the Nicotiana benthamiana were treated with the compound. Moreover, instead of the above medium a test plot, which was obtained by performing the same treatment by using a medium prepared by adding DMSO to the Murashige′Scoog medium of ½-fold concentration at a volume ratio of 1/1,000, was used as a control plot not treated with the compound.
(§3) (Low-Temperature Stress Treatment)
(§4) The seedlings of the Nicotiana benthamiana treated with the compound were subjected to low-temperature treatment by being cultured for 7 days at 1.5±1.0° C., under the conditions of an illuminance of 2,000 lux, and a day length of 16 hours.
The seedlings of the Nicotiana benthamiana having undergone the low-temperature stress treatment were cultured for 3 days at 22° C., under the conditions of an illuminance of 4,000 lux, and a day length of 16 hours. Thereafter, the area of green leaf was quantified by Scanalyzer HTS (manufactured by LemnaTec GmbH). Moreover, the value of the control plot not treated with the compound that had not yet been subjected to the low-temperature stress treatment was measured in the same manner. A value of a relative leaf area was calculated based on the following equation (1), and if the relative value of leaf area was 5 or greater, the compound was evaluated to have a growth promotion effect. As a result of the evaluation, it was confirmed that when the plant was treated with one of the compounds 2, 3, 7, 11 to 13, 20, 23, 24, 30, 38, 39, 41 to 43, 46, 50, 64, 68, 80, 82, 88, 93, 94, 96, 104, 107, and 112 of the present invention at 0.1 ppm, the value of a relative leaf area was 5 or greater, compared to the area of green leaf of the control plot not treated with compound. Accordingly, it was confirmed that the treatment using the compound of the present invention improve a growth promotion effect. Relative leaf area=100*(a green area of a plot treated with the compound of the present invention minus(−) a green area of a plot not treated with the compound of the present invention)/(a green area of a control plot not treated with the compound of the present invention that had not yet been subjected to low-temperature stress treatment minus(−) green area of a control plot not treated with the compound of the present invention) Equation (1): […]

Experiment [3] concerns Nicotiana benthamiana. Briefly: Test Example 5: growth promotion under low-temperature stress by hydroponics of Nicotiana benthamiana (1 ppm). To be noted: compound at 1 ppm, 7 days at 1.5±1.0° C. low-temperature stress, then 3 days at 22° C., 5 or greater = growth promotion effect, read-out: value of a relative leaf area (Equation (1), area of green leaf). How it is done: Test Example 5. Test for Evaluating Growth Promotion Under Low-Temperature Stress by Hydroponics of Nicotiana benthamiana
as §1
A DMSO solution, which contained one of the compounds 9, 10, 15, 16, 27 to 29, 31 to 37, 40, 44, 47, 48, 52, 55, 56, 58, 61, 63, 81, 87, 89, 92, 95, 98, 100, 102, 105, 108, 109, 111, 113, and 115 of the present invention at a concentration of 1,000 ppm, was prepared. The DMSO solution of the compound of the present invention was added at a volume ratio of 1/1,000 to the Murashige-Scoog medium of a ½-fold concentration (a medium containing 2.3 g of mixed salts (manufactured by Wako Pure Chemical Industries, Ltd.), 200 mg of Myo-inositol (manufactured by Sigme-Aldrich Co. LLC.), 2 mg of niconitic acid (manufactured by Wako Pure Chemical. Industries, Ltd.), 2 mg of pyridoxine hydrochloride (manufactured by Wako Pure Chemical Industries, Ltd.), 20 mg of thiamine hydrochloride (manufactured by Wako Pure Chemical Industries, Ltd.), 20 g of sucrose (manufactured by Wako Pure Chemical Industries, Ltd.), and 1 g of MES (manufactured by DOJINDO LABORATORIES) respectively per 1 L of water and having pH adjusted to 5.8), thereby preparing a medium containing the compound of the present invention at a concentration of 1 ppm.
as §2, with “1” for “0.1”, “Murashige⋅Scoog” for “Murashige′Scoog”
as §3, §4
The seedlings of the Nicotiana benthamiana having undergone the low-temperature stress treatment were cultured for 3 days at 22° C. under the conditions of an illuminance of 4,000 lux, and a day length of 16 hours. Thereafter, the area of green leaf was quantified by Scanalyzer HTS (manufactured by LemnaTec GmbH). Moreover, the value of the control plot not treated with the compound that had not yet been subjected to the low-temperature stress treatment was measured in the same manner. A value of a relative leaf area was calculated based on the following equation (1), and if the relative value of leaf area was 5 or greater, the compound was evaluated to have a growth promotion effect. As a result of the evaluation, it was confirmed that when the plant was treated with one of the compounds 9, 10, 15, 16, 27 to 29, 31 to 37, 40, 44, 47, 48, 52, 55, 56, 58, 61, 63, 81, 87, 89, 92, 95, 98, 100, 102, 105, 108, 109, 111, 113, and 115 of the present invention at 1 ppm, the value of a relative leaf area was 5 or greater, compared to the area of green leaf of the control plot not treated with compound. Accordingly, it was confirmed that the treatment using the compound of the present invention improve a growth promotion effect. Relative leaf area=100*(a green area of a plot treated with the compound of the present invention minus(−) a green area of a plot not treated with the compound of the present invention)/(a green area of a control plot not treated with the compound of the present invention that had not yet been subjected to low-temperature stress treatment minus(−) a green area of a control plot not treated with the compound of the present invention) Equation (1): […]

Bounds are passed on as bounds.

As to `Cc1ccc2sc(C(=O)O)cc2c1` [Present compound 21], the “fresh weight of the aerial part compared with the untreated control plot” value in experiment [1] is given as “larger”. For the molecule `C=Cc1ccc2cc(C(=O)O)sc2c1` [Present compound 30, 6-vinylbenzo[b]thiophene-2-carboxylic acid], the relative green leaf area at 0.1 ppm in experiment [2] was not below 5%. Still for that read-out and setting: under `O=C(O)c1cc2cc(-c3cccc(Cl)c3)ccc2s1` [Present compound 38, 5-(3-chlorophenyl)benzo[b]thiophene-2-carboxylic acid] stands not below 5%; under `O=C(O)c1cc2cc(-c3ccc(Cl)cc3)ccc2s1` [Present compound 39, 5-(4-chlorophenyl)benzo[b]thiophene-2-carboxylic acid], not below 5%; under `O=C(O)c1cc2cc(-c3ccncc3)ccc2s1` [Present compound 46, 5-(4-pyridyl)benzo[b]thiophene-2-carboxylic acid], not below 5%.

On to `O=C(O)c1cc2cc(-c3cccs3)ccc2s1` [Present compound 50, 5-(2-thienyl)benzo[b]thiophene-2-carboxylic acid], for which, in experiment [2], the relative green leaf area at 0.1 ppm was not below 5%. As to `O=C(O)c1sc2ccccc2c1C(=O)O` [Present compound 55, benzo[b]thiophene-2,3-dicarboxylic acid], in experiment [3], the relative leaf area at 1 ppm was not below 5%. Further, the “fresh weight of the aerial part compared with the untreated control plot” value in experiment [1] is “larger”. For the molecule `CN(C)c1cccc2sc(C(=O)O)cc12` [Present compound 64, 4-(dimethylamino)benzo[b]thiophene-2-carboxylic acid], the relative green leaf area at 0.1 ppm in experiment [2] was not below 5%. On the same count and under the same terms, under `O=C(O)c1sc2ccccc2c1O` [Present compound 80, 3-hydroxybenzo[b]thiophene-2-carboxylic acid] stands not below 5%. Still for that read-out and setting: under `COc1ccc2sc(C(=O)O)cc2c1` [Present compound 82, 5-methoxybenzo[b]thiophene-2-carboxylic acid] stands not below 5%; under `O=C(O)c1sc2ccccc2c1OCc1ccccc1` [Present compound 88, 3-benzyloxybenzo[b]thiophene-2-carboxylic acid], not below 5%; under `Cc1ccccc1Oc1cccc2cc(C(=O)O)sc12` [Present compound 94, 7-(2-methylphenoxy)benzo[b]thiophene-2-carboxylic acid], not below 5%. As for `O=C(O)c1cc2cccc(Oc3ccc(OC(F)(F)F)cc3)c2s1` [Present compound 96], the relative green leaf area at 0.1 ppm in experiment [2] is not below 5%. For the molecule `O=C(O)c1cc2cc(C(F)(F)F)cc(Cl)c2s1` [Present compound 104, 7-chloro-5-trifluoromethylbenzo[b]thiophene-2-carboxylic acid], the relative green leaf area at 0.1 ppm in experiment [2] is not below 5%. The same measure, in the same setting: under `O=C(O)c1sc2ccc(C(F)(F)F)cc2c1C(F)(F)F` [Present compound 107, 3,5-bis(trifluoromethyl)benzo[b]thiophene-2-carboxylic acid] stands not below 5%. `COc1c(C(=O)O)sc2ccc(C(F)(F)F)cc12` [Present compound 112, 3-methoxy-5-trifluoromethylbenzo[b]thiophene-2-carboxylic acid]: the relative green leaf area at 0.1 ppm in experiment [2] is not below 5%.
